Reference: patent US10299714B2, “Blood collection devices containing blood stabilization agent including variegin or analog thereof and/or a polysulfated disaccharide” (Becton, Dickinson and Company, priority 2010, dated 2019)
Where a name gives a salt, the structure may show the parent alone. Non-standard residues stand in square brackets, D forms with d. Residues, ends and D or L forms follow the SMILES beside them. Oic = O=C(O)[C@@H]1C[C@@H]2CCCC[C@@H]2N1; Phe(4-Me) = Cc1ccc(C[C@H](N)C(=O)O)cc1

Columns and labels:
[1] = system: platelets; test: Whole blood impedance aggregometry (Multiplate): platelet aggregation after room temperature storage of drawn blood; format: cell-based, human
From the text: The blood was allowed to stand at room temperature, in undisturbed aliquots, until tested at the times indicated. Samples were inverted several times immediately prior to testing, to re-suspend blood cells that naturally settle over time.
Measurements: Testing of platelet function (which in this experiment, was aggregation activity) was done using the Multiplate instrument (Verum Diagnostics, Munich, Germany), which uses whole blood as the sample and an increase in impedance as the measurement of platelet aggregation. The instrument was used per manufacturer's instructions. Briefly, 300 microliters of isotonic saline was warmed in each reaction cuvette, and to this was added 300 microliters of the whole blood sample. In reactions where aspirin or other platelet antagonists (inhibitors) were added in vitro, 20 microliters (μL) of a stock solution of aspirin was spiked into the samples. The aggregation reaction was initiated by addition of a platelet agonist, in this case collagen, at 3.2 μg/ml and volume (20 μl) per manufacturer's instructions. Upon addition of the collagen, the impedance measurements began automatically, and were continued for 6 minutes, representing the full course along the x-axis in the graphs shown in FIG. 2. The graphs show platelet aggregation, as reported by impedance, as an arbitrary unitless measurement on the y-axis, over the 6-minute run time on the x-axis. Traces shown are raw platelet aggregation data delivered from the instrument. […] Representative data are shown for blood that dwells at room temperature after the initial draw for 1 hr, 24 hr, 48 hr, and 72 hr. Data are shown for the blood itself, as well for blood pre-treated with aspirin to inhibit platelet function immediately prior to testing.
The experiments were performed as described in Example 1. In this case, the data are plotted as a function of time that the blood sample dwells outside of the body (x-axis) versus platelet function as shown as the area under the curve (AUC) as one representation of the platelet aggregation signal. AUC is the integrated signal from the raw data traces shown in Example 1, and also is reported as a unitless measurement. The effective background level of the instrument is drawn as a dashed line across the bottom of the graph. Any AUC measurement of aggregation at or below this level was considered so weak as to be unreportable, essentially representing a “null” data level.
(§1) Relative stability of platelets was examined with respect to a range of concentrations of variegin (SEQ ID NO:1). Experiments were performed as described above, using either collagen or adenosine diphosphate (ADP) as agonists, all per manufacturer's recommended protocols. Table 2 lists a qualitative assessment of stability, namely how long after initially drawing the blood was platelet aggregation measureable above the effective instrument baseline, the time to first visual observation of clotted, insoluble material in the whole blood sample, and an assessment of the severity or extent of the presence of this insoluble material was also recorded.
These peptides were used as the blood stabilization agent, and were spiked into blood immediately after collection into an empty, evacuated blood collection tube, achieving a final concentration of 150 μM. The blood was allowed to dwell in a whole-blood state at room temperature, until assayed for platelet aggregation potential, all as described in Example 1. Agonists used included collagen and ADP, following manufacturer's instructions.

[2] = system: whole blood sample; test: Visual inspection of stored whole blood sample for hemolysis; format: cell-based, human; details: Table 5
From the text: Skilled practitioners will appreciate the hemolyzed samples are an obvious visual clue that damage to blood cells has occurred, either during the collection, transport, or storage of blood samples. Although hemolysis is not necessarily detrimental to any one clinical assay, it is a well known interference for some tests, and thus it is preferable to avoid causing hemolysis. Hemolysis can be measured by visual scale (e.g., mild or slightly pink, moderate or noticeably red, or severe or dark red). Hemolysis can also be measured by spectroscopic measurement of the red color of the hemoglobin itself, and can be reported by the concentration of hemoglobin released into the serum or plasma (e.g., such that less than about 20 mg/dL concentration of released hemoglobin, or to an extent that the hemoglobin concentration cannot be measured visually or by spectroscopy represents “minor or negligible” hemolysis, about 20 to about 100 mg/dL represents “mild” hemolysis, about 100 to about 300 represents “moderate” hemolysis, or greater than about 300 mg/dL represents “severe” hemolysis).
(§2) The results are shown in Table 5 which lists additives alone or in combination that were spiked into freshly drawn whole blood samples. […] For some of the conditions tested, only a subset of these three parameters was recorded.

[3] = system: platelets; test: Platelet aggregation measurements using low dose ADP agonist, inventive tube versus hirudin tube; format: cell-based, human; design: key to Aggregation, AUC: area under curve of impedance aggregation trace, arbitrary unitless units; details: ADP 1.25 μM
Protocol: Measurements: Testing of platelet function (which in this experiment, was aggregation activity) was done using the Multiplate instrument (Verum Diagnostics, Munich, Germany), which uses whole blood as the sample and an increase in impedance as the measurement of platelet aggregation. The instrument was used per manufacturer's instructions. Briefly, 300 microliters of isotonic saline was warmed in each reaction cuvette, and to this was added 300 microliters of the whole blood sample. In reactions where aspirin or other platelet antagonists (inhibitors) were added in vitro, 20 microliters (μL) of a stock solution of aspirin was spiked into the samples. The aggregation reaction was initiated by addition of a platelet agonist, in this case collagen, at 3.2 μg/ml and volume (20 μl) per manufacturer's instructions. Upon addition of the collagen, the impedance measurements began automatically, and were continued for 6 minutes, representing the full course along the x-axis in the graphs shown in FIG. 2. The graphs show platelet aggregation, as reported by impedance, as an arbitrary unitless measurement on the y-axis, over the 6-minute run time on the x-axis. Traces shown are raw platelet aggregation data delivered from the instrument. The duplicate traces evident in some of the graphs represent two duplicate measurement channels that always ran simultaneously, to assist with statistical significance of the data, and often so closely overlap as to look like only a single trace in some graphs. Representative data are shown for blood that dwells at room temperature after the initial draw for 1 hr, 24 hr, 48 hr, and 72 hr. Data are shown for the blood itself, as well for blood pre-treated with aspirin to inhibit platelet function immediately prior to testing.
Relative stability of platelets was examined in blood that was collected from 5 different human subjects using an inventive blood collection tube containing 150 μM variegin (SEQ ID NO:1)+1.17 USP/mL unfractionated heparin, and as a comparison, blood collection tubes containing hirudin, commercially available from Verum Diagnostica (Catalog #MP0600 for “Hirudin vacuum blood collection tube”). Experiments were carried out as described above in Example 1, using the whole blood impedance aggregometer, and using a low dose of ADP (1.25 μM final concentration) as the agonist.

[4] = system: whole blood sample; test: Visual inspection of stored whole blood sample for clotted, insoluble material; design: species or system human; details: peptide 150 μM; room temperature
Protocol: as §1
These peptides were used as the blood stabilization agent, and were spiked into blood immediately after collection into an empty, evacuated blood collection tube, achieving a final concentration of 150 μM. The blood was allowed to dwell in a whole-blood state at room temperature, until assayed for platelet aggregation potential, all as described in Example 1. Agonists used included collagen and ADP, following manufacturer's instructions. Table 4 lists a qualitative assessment of stability, namely how long after initially drawing the sample was platelet aggregation measureable above the effective instrument baseline. Additionally, the time to first visual observation of clotted, insoluble material in the whole blood sample, and an assessment of the severity or extent of the presence of this insoluble material was also recorded. In some cases, only visual characterization of the amount of insoluble material was reported, without having performed any platelet aggregation measurements.
as §2

[5] = Table 4, peptide spiked into blood to 150 μM final, collagen and ADP, room temperature

Compound: O=C(O)CC(O)(CC(=O)O)C(=O)O [citrate, sodium citrate, reference compound]
- platelet aggregation, area under the curve (AUC), FIG. 3 ([1]; 24 hr after draw, collagen, no aspirin): very close to the effective null level
- platelet aggregation, area under the curve (AUC), FIG. 3 ([1]; 48 hr after draw, collagen, no aspirin): no meaningful aggregation was detected
- platelet aggregation signal (impedance, FIG. 2) ([1]; all times longer than 1 hr (24, 48, 72 hr), collagen, sodium citrate ([…]) tube): clearly lost, resulting in almost non-measureable signal
- loss of platelet function relative to the 1 hr sample (FIG. 4) ([1]; within 24 hr, collagen, average of three human subjects): lost well more than half of their function

Compound: O=S(=O)(O)OC[C@H]1O[C@@](COS(=O)(=O)O)(O[C@H]2O[C@H](COS(=O)(=O)O)[C@@H](OS(=O)(=O)O)[C@H](OS(=O)(=O)O)[C@H]2OS(=O)(=O)O)[C@@H](OS(=O)(=O)O)[C@@H]1OS(=O)(=O)O [SOS, sucrose octasulfate]
- Visual inspection for hemolysis ([2]; additive alone at 2 mM): None-mild

Compound: Hirudin
- Aggregation, AUC ([3]; 0 hr, Subject 1): 34
- Aggregation, AUC ([3]; 0 hr, Subject 2): 18
- Aggregation, AUC ([3]; 0 hr, Subject 3): 84
- Aggregation, AUC ([3]; 0 hr, Subject 4): 113
- Aggregation, AUC ([3]; 0 hr, Subject 5): 59
- Aggregation, AUC ([3]; 24 hr, Subject 1): 27
- Aggregation, AUC ([3]; 24 hr, Subject 2): 15
- Aggregation, AUC ([3]; 24 hr, Subject 3): 25
- Aggregation, AUC ([3]; 24 hr, Subject 4): 22
- Aggregation, AUC ([3]; 24 hr, Subject 5): 37
- area under the curve for the 1 h sample ([3]; one of the five samples): 18
- aggregation (AUC), mean +/- spread of the 5 samples ([3]; time zero): 62+/−38

Compound: GDVAEPKMHKTAPPFDFEAIPEEYLDDES (Synthetic Peptide Variegin Fragment) [Ct29]
- Time after blood draw where aggregation was still measurable above baseline [1, 5]: 54 to 79 h

Compound: heparin [reference compound]
- blood stabilization performance (data not shown) ([1]; used alone at 1.17 U/ml): performed relatively poorly

Compound: Cc1ccc(C[C@H](NC(=O)[C@@H](C)NC(=O)[C@@H]2CCCN2C(=O)[C@@H]2C[C@@H]3CCCC[C@@H]3N2C(=O)[C@H](N)CCCN=C(N)N)C(N)=O)cc1 [Thrombostatin (FM-19), rOicPaF(p-Me)—NH2] (H-[dR][Oic]P[dA][Phe(4-Me)]-NH2)
- Visual inspection for hemolysis ([2]; additive alone at 30 μM): None-mild

Compound: CC[C@H](C)[C@H](NC(=O)[C@H](C)NC(=O)[C@H](CCC(=O)O)NC(=O)[C@H](Cc1ccccc1)NC(=O)[C@H](CC(=O)O)NC(=O)[C@H](Cc1ccccc1)NC(=O)[C@@H]1CCCN1C(=O)[C@@H]1CCCN1C(=O)[C@H](C)NC(=O)[C@@H](NC(=O)[C@H](CCCCN)NC(=O)[C@H](Cc1cnc[nH]1)NC(=O)[C@H](CCSC)NC(=O)[C@H](CCCCN)NC(=O)[C@@H]1CCCN1C(=O)[C@H](CCC(=O)O)NC(=O)[C@H](C)NC(=O)[C@@H](NC(=O)[C@H](CC(=O)O)NC(=O)CNC(=O)[C@H](CCC(N)=O)NC(=O)[C@H](CC(=O)O)NC(=O)[C@@H](N)CO)C(C)C)[C@@H](C)O)C(=O)N1CCC[C@H]1C(=O)N[C@@H](CCC(=O)O)C(=O)N[C@@H](CCC(=O)O)C(=O)N[C@@H](Cc1ccc(O)cc1)C(=O)N[C@@H](CC(C)C)C(=O)N[C@@H](CC(=O)O)C(=O)N[C@@H](CC(=O)O)C(=O)N[C@@H](CCC(=O)O)C(=O)N[C@@H](CO)C(=O)O [variegin]
- platelet aggregation signal (impedance, FIG. 2) ([1]; 24 and 48 hrs after draw, collagen, tube with 150 μM variegin, room temperature): preserved platelet function substantially at the level of function measured in the 1 hr-old sample
- platelet aggregation, area under the curve (AUC), FIG. 3 ([1]; 72 hr after draw, collagen, 150 μM variegin): meaningful measurements even at 72 hr
- platelet aggregation signal (impedance, FIG. 2) ([1]; 72 hr after draw, collagen, tube with 150 μM variegin, room temperature): slightly reduced but still sufficiently strong
- Time after blood draw where aggregation was still measurable above baseline ([1]; Table 2, 2 μM variegin, collagen or ADP, room temperature): 2 h
- Time after blood draw where aggregation was still measurable above baseline ([1]; Table 2, 15 μM variegin, collagen or ADP, room temperature): 24 h
- Time after blood draw where aggregation was still measurable above baseline ([1]; Table 2, 50 μM variegin, collagen or ADP, room temperature): 24 h
- Time after blood draw where aggregation was still measurable above baseline ([1]; Table 2, 75 μM variegin, collagen or ADP, room temperature): 48 to 72 h
- Time after blood draw where aggregation was still measurable above baseline ([1]; Table 2, 150 μM variegin, collagen or ADP, room temperature): ≥ 72 h
- Time after blood draw where aggregation was still measurable above baseline [1, 5]: 72 h
- platelet aggregation signal maintained relative to the 1 hr sample (FIG. 4) ([1]; as of 48 hr, collagen, average of three human subjects, 150 μM variegin): well more than half of the signal was maintained
- strength of platelet aggregation signal (impedance, FIG. 2) ([1]; fresh sample, 1 hr after draw, collagen […], tube with 150 μM variegin or sodium citrate ([…]), room temperature): higher than the citrate reference sample
- Visual inspection for hemolysis ([2]; additive alone at 150 μM): None-mild

Compound: SDQGDVAEPAMHKTAPPFDFEAIPEEYLDDES (Synthetic Peptide Variegin Fragment) [K10A]
- time after blood draw to solid clotting of the sample [4]: ≤ 4 h
